Where two headings read alike, the source gives them in different places.
Legend:
[1] = tested on: Plasmodium falciparum clones 3d7, HB3, Dd2 and 7G8; assay: In vitro IC50, growth of Plasmodium falciparum clones on human red blood cells (SybrGreen DNA fluorescence); type: cell-based
Method: The experiment was carried out with four clones (named 3d7, HB3, Dd2 and 7G8) of the malarial agent Plasmodium falciparum, a parasitic disease also known as malaria. These clones are laboratory reference models commonly used to screen drugs for antimalarial activity.
Plasmodium falciparum was grown on human red blood cells. The test was carried out in 96-well plates in which infected red blood cells (synchronized with sorbitol) were contacted with the different treatments for 72 hours at 37° C. in an incubator with controlled atmosphere (5% CO2, 1% O2, 94% N2). Growth of the pathogen was measured by quantifying fluorescent DNA in the presence of SybrGreen.
An antiparasitic pharmaceutical composition according to the invention was prepared by mixing artesunate at different concentrations with carvacrol or eugenol at sub-inhibitory concentrations of 0.05 mM and 0.2 mM, respectively. […] This pharmaceutical composition according to the invention was named artesunate P eugenol or artesunate P carvacrol, the letter P signifying potentiation by eugenol or carvacrol.
In each case, antiparasitic activity was determined either with artesunate alone, or with carvacrol alone, or with eugenol alone, or with the composition of the invention.
The IC50 was determined with Harald Noedl's HN NonLin V1.051 Beta software based on the fluorescence values.
The experiment was carried out with the same Plasmodium falciparum clones as in example 2 (3d7, HB3, Dd2 and 7G8), the first two clones (3d7 and HB3) being susceptible and the other two (Dd2 and 7G8) being resistant to chloroquine.
Chloroquine, one of the most widely used antiparasitic agents, is tested. […] This pharmaceutical composition was named chloroquine P eugenol, the letter P signifying potentiation by eugenol.
In each case, antiparasitic activity was determined either with chloroquine alone, or with eugenol alone, or with the composition of the invention.
The IC50 was determined as in example 2.
The experiment was carried out with the same Plasmodium falciparum clones as in examples 2 and 3 (3d7, HB3, Dd2 and 7G8), the first two clones (3d7 and HB3) being susceptible and the other two (Dd2 and 7G8) being resistant to […].
Mefloquine, one of the most widely used antiparasitic agents, is tested. […] This pharmaceutical composition according to the invention was named mefloquine P eugenol, the letter P signifying potentiation by eugenol.
In each case, antiparasitic activity was determined either with mefloquine alone, or with eugenol alone, or with the composition of the invention.
The IC50 was determined as in examples 2 and 3.

Plasmodium berghei ANKA = assay: Cerebral malaria model, CBA/J mice infected with Plasmodium berghei ANKA (in vivo)
Description: Here, the intrinsic antimalarial activity of carvacrol as well as artesunate potentiated by carvacrol was studied in vivo in an animal model of cerebral malaria (neuromalaria). The reference model for this type of infection makes use of CBA/J mice infected with Plasmodium berghei ANKA, an agent that causes cerebral malaria.
The intraperitoneal route was used for infection and treatment of the mice.
In this model, the onset of the first clinical signs occurs by day 4 or 5 (D4 or D5) after infection. Animals presenting these signs die in the next two days (D6 and D7).
The test was carried out on five groups of 10 mice as follows:
Group 1: Uninfected, untreated controls
Group 2: Infected mice treated with carvacrol (60 mg/kg of weight) twice a day every 12 hours
Group 3: Infected mice treated with carvacrol (40 mg/kg of weight) twice a day every 12 hours
Group 4: Infected mice treated with artesunate (40 mg/kg of weight) once a day
Group 5: Infected mice treated with artesunate (40 mg/kg of weight) once a day and with carvacrol (40 mg/kg of weight) twice a day.
Treatment commenced five days after infection (D5) and continued for three days (D5, D6, D7).

[2] = tested on: Eimeria acervulina and Eimeria tenella; assay: Treatment of subclinical coccidiosis in broiler chickens (in vivo); design: species or system Eimeria acervulina and Eimeria tenella (in chickens); conditions: infected chickens, 5 days treatment in feed (salinomycin 40 mg/kg feed, carvacrol or thymol 75 mg/kg feed); for Weight gain (grams ± SD) Day 5: day 5, immediately after stopping treatment; for Weight gain (grams ± SD) Day 15: day 15, 10 days after stopping treatment
Method: These in vivo tests were designed to measure weight gain, consumption index, daily oocyst output and appearance of fecal matter in treated chickens.
The experiment was carried out on 200 chickens aged 22 days (average weight 620 g) afflicted with subclinical coccidiosis sampled from a group of 10,000 broiler chickens.
Subclinical coccidiosis was diagnosed on day 20. The mean oocyst output in the experimental animals was 50,000 oocysts/g (OPG).
The antiparasitic agent used is salinomycin, one of the most widely used antiparasitics for this type of infection. Two antiparasitic pharmaceutical compositions according to the invention were prepared by mixing salinomycin at different concentrations with carvacrol or thymol at a sub-inhibitory concentration of 75 mg/kg of feed.
Antiparasitic activity was also determined either with salinomycin alone, or with carvacrol alone or thymol alone. Antiparasitic activity was measured according to the conventional criteria for this type of infection: weight gain, consumption index, daily oocyst output and appearance of fecal matter. These criteria were measured on day 5 (immediately after stopping treatment) and on day 15 (10 days after stopping treatment).
The sample was subdivided into seven groups of […]:
Group 1: Uninfected, untreated animals (healthy controls). Mean weight on day 22: 750 g.
Group 2: Infected, untreated animals (affection controls).
Group 3: Infected animals treated with salinomycin at a dose of 40 mg/kg of feed. Group 4: Infected animals treated with carvacrol 75 mg/kg of feed.
Group 5: Infected animals treated with thymol 75 mg/kg of feed.
Group 6: Infected animals treated with salinomycin 40 mg/kg of feed potentiated by carvacrol 75 mg/kg of feed.
Group 7: Infected animals treated with salinomycin 40 mg/kg of feed potentiated by thymol 75 mg/kg of feed.
The antiparasitic agents used were mixed with this feed during the five days of treatment. The animals had free access to the feed throughout the experiment.

[3] = artesunate 40 mg/kg once a day, intraperitoneal, D5-D7
[4] = carvacrol 40 mg/kg twice a day (80 mg/kg/24 h), intraperitoneal, D5-D7
[5] = carvacrol 60 mg/kg twice a day (120 mg/kg/24 h), intraperitoneal, D5-D7

CCN(CC)CCCC(C)Nc1ccnc2cc(Cl)ccc12 (stereo not drawn) [chloroquine]
IC50 ([1]; Plasmodium falciparum, Erythrocyte, 72 h, read-out: IC50 chloroquine alone, Clone 3d7 (susceptible to chloroquine)): 0.0223 µM | IC50 ([1]; Plasmodium falciparum, Erythrocyte, 72 h, read-out: IC50 chloroquine alone, Clone 7G8 (resistant to chloroquine)): 0.445 µM | IC50 ([1]; Plasmodium falciparum, Erythrocyte, 72 h, read-out: IC50 chloroquine alone, Clone Dd2 (resistant to chloroquine)): 0.494 µM | IC50 ([1]; Plasmodium falciparum, Erythrocyte, 72 h, read-out: IC50 chloroquine alone, Clone HB3 (susceptible to chloroquine)): 0.0371 µM

C[C@H]1[C@H](OC(=O)CCC(=O)O)O[C@@H]2O[C@@]3(C)CC[C@H]4[C@H](C)CC[C@@H]1[C@@]24OO3 [artesunate]
% mortality (Plasmodium berghei ANKA; [3]): 100% | Survival time of animals that died (Plasmodium berghei ANKA; [3]): 7 days | protection of treated animals (in words) (Plasmodium berghei ANKA; artesunate alone 40 mg/kg/24 h): does not provide any protection | IC50 ([1]; Plasmodium falciparum, Erythrocyte, 72 h, read-out: IC50 artesunate alone, Clone 3d7): 0.00214 µM | IC50 ([1]; Plasmodium falciparum, Erythrocyte, 72 h, read-out: IC50 artesunate alone, Clone 7G8): 0.001 µM | IC50 ([1]; Plasmodium falciparum, Erythrocyte, 72 h, read-out: IC50 artesunate alone, Clone Dd2): 0.00266 µM | IC50 ([1]; Plasmodium falciparum, Erythrocyte, 72 h, read-out: IC50 artesunate alone, Clone HB3): 0.00228 µM | IC50 ([1]; read-out: IC50 artesunate alone, Clone 7G8, 72 hours): 0.00125 µM

CC[C@@H](C(=O)[C@@H](C)[C@@H](O)[C@H](C)[C@@H]1O[C@@H]([C@@H](CC)C(=O)O)CC[C@@H]1C)[C@H]1O[C@]2(C=C[C@@H](O)[C@]3(CC[C@@](C)([C@H]4CC[C@](O)(CC)[C@H](C)O4)O3)O2)[C@H](C)C[C@@H]1C [Salinomycin, salinomycin, reference compound]
Consumption index Day 5 [2]: 2.2 | Fecal appearance Day 5 [2]: Diarrheal | Oocyst output (OPG ± SD) Day 5 [2]: 110,000 ± 6700 OPG | Weight gain (grams ± SD) Day 5 [2]: 182 ± 28 grams | Consumption index Day 15 [2]: 2.9 | Fecal appearance Day 15 [2]: Diarrheal | Oocyst output (OPG ± SD) Day 15 [2]: 164,000 ± 7200 OPG | Weight gain (grams ± SD) Day 15 [2]: 835 ± 44 grams

C=CCc1ccc(O)c(OC)c1 [eugenol]
IC50 ([1]; Plasmodium falciparum, Erythrocyte, 72 h, read-out: IC50 eugenol alone, Clone 3d7): 1250 µM | IC50 ([1]; Plasmodium falciparum, Erythrocyte, 72 h, read-out: IC50 eugenol alone, Clone 7G8): 400 µM | IC50 ([1]; Plasmodium falciparum, Erythrocyte, 72 h, read-out: IC50 eugenol alone, Clone Dd2): 660 µM | IC50 ([1]; Plasmodium falciparum, Erythrocyte, 72 h, read-out: IC50 eugenol alone, Clone HB3): 660 µM

Cc1ccc(C(C)C)cc1O [carvacrol]
protection of treated animals (in words) (Plasmodium berghei ANKA; carvacrol 40 mg/kg twice a day (80 mg/kg/24 h)): does not afford any protection | % mortality (Plasmodium berghei ANKA; [4]): 100% | Survival time of animals that died (Plasmodium berghei ANKA; [4]): 7.5 days | % survivor at D12 (Plasmodium berghei ANKA; [5]): 80% | Survival time of animals that died (Plasmodium berghei ANKA; [5]): 7.5 days | % mortality (Plasmodium berghei ANKA; carvacrol 60 mg/kg twice a day (120 mg/kg/24 h), intraperitoneal, D5-D7 after infection): 20% | Consumption index Day 5 [2]: 2.4 | Fecal appearance Day 5 [2]: Diarrheal | Oocyst output (OPG ± SD) Day 5 [2]: 105,000 ± 5900 OPG | Weight gain (grams ± SD) Day 5 [2]: 176 ± 32 grams | Consumption index Day 15 [2]: 3 | Fecal appearance Day 15 [2]: Diarrheal | Oocyst output (OPG ± SD) Day 15 [2]: 147,000 ± 4300 OPG | Weight gain (grams ± SD) Day 15 [2]: 812 ± 51 grams | IC50 ([1]; Plasmodium falciparum, Erythrocyte, 72 h, read-out: IC50 carvacrol alone, Clone 3d7): 330 µM | IC50 ([1]; Plasmodium falciparum, Erythrocyte, 72 h, read-out: IC50 carvacrol alone, Clone 7G8): 110 µM | IC50 ([1]; Plasmodium falciparum, Erythrocyte, 72 h, read-out: IC50 carvacrol alone, Clone Dd2): 160 µM | IC50 ([1]; Plasmodium falciparum, Erythrocyte, 72 h, read-out: IC50 carvacrol alone, Clone HB3): 220 µM

OC(c1cc(C(F)(F)F)nc2c(C(F)(F)F)cccc12)C1CCCCN1 (stereo not drawn) [mefloquine]
IC50 ([1]; Plasmodium falciparum, Erythrocyte, 72 h, Clone 3d7 (susceptible to mefloquine), read-out: IC50 mefloquine alone): 0.00883 µM | IC50 ([1]; Plasmodium falciparum, Erythrocyte, 72 h, Clone 7G8 (resistant to mefloquine), read-out: IC50 mefloquine alone): 0.0153 µM | IC50 ([1]; Plasmodium falciparum, Erythrocyte, 72 h, Clone Dd2 (resistant to mefloquine), read-out: IC50 mefloquine alone): 0.0338 µM | IC50 ([1]; Plasmodium falciparum, Erythrocyte, 72 h, Clone HB3 (susceptible to mefloquine), read-out: IC50 mefloquine alone): 0.00896 µM

Cc1ccc(C(C)C)c(O)c1 [Thymol, thymol]
Consumption index Day 5 [2]: 2.45 | Fecal appearance Day 5 [2]: Diarrheal | Oocyst output (OPG ± SD) Day 5 [2]: 98,000 ± 4200 OPG | Weight gain (grams ± SD) Day 5 [2]: 180 ± 52 grams | Consumption index Day 15 [2]: 3.3 | Fecal appearance Day 15 [2]: Diarrheal | Oocyst output (OPG ± SD) Day 15 [2]: 136,000 ± 6500 OPG | Weight gain (grams ± SD) Day 15 [2]: 840 ± 45 grams

Reference: patent publication US20080171768A1, “Pharmaceutical Composition Containing An Anti Parasitic Agent And Active Ingredient Selected From Carveol, Thymol, Eugenol, Borneol, Carvacrol, Alpha-Ionone, Or Beta-Ionone” (ADVANCED SCIENTIFIC DEVELOPMENTS, priority 2005, published 2008)
